Assay results from publication PMC10989010, “A panel of janus kinase inhibitors identified with anti-inflammatory effects protect mice from lethal influenza virus infection” (Antimicrobial Agents and Chemotherapy, 2024).
Where a name gives a salt, the structure may show the parent alone.

Tests used:
IL-8 = test: U937 cell-based anti-inflammatory assay for influenza virus infection, IL-8 production (AlphaLISA); parameters: species or system human; conditions: Homo sapiens, U-937, 72 h, read-out: IC50 IL-8
Method: U937 cells were seeded in a 96-well culture plate at a density of 1.5 × 10^5 cells per well and incubated for 24 hours prior to virus infection. Subsequently, the cells in each well were infected with the PR8 virus at a multiplicity of infection of 0.05 and treated with serially diluted drugs or left untreated as a control. The drugs were serially diluted threefold, starting from an initial concentration of 200 µM down to 0.01 µM. […] Following this incubation, the supernatants were collected and subjected to AlphaLISA analysis to determine IL-8, IP-10, and MCP1 protein levels.
The AlphaLISA detection kits employed in this study were IL-8 (PerkinElmer AL224), IP-10 (PerkinElmer AL259), and MCP1 (PerkinElmer, AL244). U937 cell culture supernatants were measured for IL-8, IP-10, and MCP-1 protein levels using AlphaLISA assay as per the manufacturer’s recommendations. The ELISA and AlphaLISA plates were read using the Varioskan LUX multimode microplate reader (Thermo Scientiﬁc, Waltham, MA, USA).

U937 cells = test: Cytotoxicity assay (CellTiter-Glo); assay type: cell-based, human; conditions: U937 cells; CellTiter-Glo; mean of three independent experiments
Method: The compound cytotoxicity was determined by CellTiter-Glo Assay (Promega, Madison, WI, USA). After adding 15 µL of CellTiter-Glo reagent to each well, plates were incubated at room temperature for 15 minutes with shaking. The luminescence intensity was determined by a multimode plate reader (Wallac Envision, PerkinElmer, MA, USA).

lung tissues = test: Lung tissues histopathology (HE staining) of infected mice; assay type: in vivo; conditions: 300 TCID50; 20 mg/kg/d; day 7 p.i.
Method: The H&E staining experiments were performed according to the previous report ([46]). Briefly, all the mouse lung tissues were fixed in 4% paraformaldehyde overnight, embedded in paraffin, and cut into 4 µm sections. The sections were stained with hematoxylin solution, treated with hematoxylin differentiation solution and hematoxylin Scott’s tap water bluing, and rinsed with tap water. The sections were dehydrated in 85% ethanol for 5 minutes, followed by 5 minutes in 95% ethanol, and stained with eosin dye for 5 minutes. After dehydration, all the sections were sealed with neutral gum. Each section was examined under the microscope. The slides were randomly read and reviewed for tissue damage, necrosis, and inflammatory cell infiltration.

[1] = system: neutrophils and macrophages; test: Flow cytometry of BALF cells of infected mice; assay type: in vivo; conditions: 20 mg/kg/d, day 7 p.i.
Method: The mouse was euthanized and affixed onto a surgical plate, followed by disinfection of the neck using 70% ethanol. An incision was made on the neck skin using scissors to expose the trachea. Subsequently, a 0.2 cm incision was created on the trachea with surgical scissors, and a gavage needle was carefully inserted into it. The trachea was tied around the needle using cotton thread to secure the needle in place. Then, sterile PBS solution loaded in a 1 mL syringe was gently injected into the lung. The thorax of the mouse was massaged to facilitate even distribution of the solution before careful aspiration. Following the removal of the syringe from the needle, lavage fluid obtained from this process was transferred to an ice-cooled 1.5 mL tube for further processing or stored at −80℃ for subsequent analysis. Finally, resuspension and staining of cell pellet obtained after centrifugation of lavage fluid for 10 minutes at 1,000 × g and 4℃ were performed for subsequent analysis using flow cytometry ([45]).
BALF samples were washed with FACS (fluorescence-activated cell sorting) buffer (2% BSA in PBS), followed by red blood cell lysis using Red Cell Lysis Buffer (Tiangen, Beijing, China). For the surface staining, cells were stained with the following fluorochrome-labeled antibodies (Biolegend, San Diego, USA): PE-Cy7-conjugated Ly6C (clone HK1.4, dilution 1:200), PE-conjugated CD11b (clone M1/70, dilution 1: 200), APC-conjugated Ly6G (clone 1A8, dilution 1: 200), and FITC-conjugated CD11c (clone N418, dilution 1: 100). Cells were washed with PBS twice and counterstained with 7AAD (Biolegend, San Diego, USA) to differentiate apoptotic and dead cells, then analyzed using a BD FACSVerse Cell Analyzer (BD, New Jersey, USA).

PR8 virus = test: Viral titers in BALF by TCID50 assay using MDCK cells; assay type: in vivo; conditions: 300 TCID50; 20 mg/kg/d; day 7 p.i.; treated versus untreated mice
Method: Madin-Darby canine kidney (MDCK) cells (ATCC CCL-34™) were maintained in Dulbecco’s modified Eagle’s medium (DMEM, Gibco, Carlsbad, CA) supplemented with 10% fetal bovine serum (Gibco), 100 U/mL penicillin, and 100 µg/mL streptomycin. Human monocyte cell line U937 (CRL-1593.2) was cultured in RPMI 1640 medium supplemented with 10% fetal bovine serum (Gibco), 100 U/mL penicillin, and 100 µg/mL streptomycin. All these cells were maintained at 37℃ in a 5% CO2 incubator. […] The viral titers were measured using 50% tissue culture infective dose (TCID50) assay in MDCK cells. The 10-day-old embryonated chicken eggs were obtained from Guangdong Wens Dahuanong Biotechnology Co., Ltd (Guangdong, China). Six-week-old BALB/c mice were purchased from Guangdong Medical Laboratory Animal Center (GDMLAC, Guangdong, China) and housed under specific pathogen-free conditions.

[2] = system: influenza virus-specific IgG; test: Influenza virus-specific IgG in mouse serum (ELISA); assay type: in vivo, BALB/c mice; conditions: 50 TCID50 PR8, 20 mg/kg twice daily for 5 days from 3 dpi, versus untreated
Method: The PR8 virus was purified and inactivated using β-Propiolactone (CAS: 57–57-8, MCE) at a 1:3,000 (vol/vol) ratio. The inactivated PR8 virus (2 µg in each well) was then coated onto a 96-well ELISA plate (Corning, USA) and left overnight at 4℃. Afterward, the plate was washed three times and blocked with 5% skimmed milk for 1 hour at 37℃. The plate was washed again three times and then incubated with 100 µL of serial diluted sera at 37 ℃ for 2 hours. Next, the plate was washed three times and incubated with 100 µL of 1,000-fold diluted (horseradish peroxidase) HRP-conjugated affinipure goat ant-mouse IgG (H + L; SA00001-1, Proteintech) at 37℃ for 1 hour. After washing the plate four times, 100 µL of TMB (3, 3', 5, 5'-tetramethylbenzidine) substrate was added to each well until the solutions turned blue, and then 50 µL of 2M H2SO4 was added to stop the reaction. Finally, the absorbance was read at OD450 nm using the Varioskan LUX multimode microplate reader (Thermo Scientific, Waltham, MA, USA) ([47]).

CNS(=O)(=O)C[C@H]1CC[C@H](N(C)c2ncnc3[nH]ccc23)CC1 [Oclacitinib maleate]
IC50 (IL-8): 0.05 µM | CC50 (U937 cells): 50 µM | lung histopathology (HE staining) (lung tissues): remained primarily intact, with fewer inflammatory cells present | number of neutrophils and macrophages in the lungs ([1]; BALF flow cytometry, versus placebo): reduce the number of neutrophils and macrophages | Ly6G- (flow cytometry gate, BALF) ([1]; Fig 4B, 300 TCID50): 81.6 | Macrophage (flow cytometry gate, BALF) ([1]; Fig 4B, 300 TCID50): 8.05 | Neurophil (flow cytometry gate, BALF) ([1]; Fig 4B, 300 TCID50): 15.2 | viral titers in the BALF (PR8 virus): no significant differences | serum influenza virus-specific IgG production ([2]; 7 dpi): significantly suppressed | serum influenza virus-specific IgG production ([2]; 14 and 21 dpi): slight suppression
